Data from patent US20250243196A1, “CITRON KINASE INHIBITORS” (The Cleveland Clinic Foundation, priority 2021, published 2025).

Columns and labels:
Assay type in all cases: biochemical
MEK2(h) = MEK2(h) (Homo sapiens (Human), UniProt P36507); assay: KinaseProfiler panel; set-up: dose or concentration left out as unconfirmed; details: activity remaining
ULK3(h) = ULK3(h) (Homo sapiens (Human), UniProt Q6PHR2); assay: KinaseProfiler panel; set-up: dose or concentration left out as unconfirmed; details: activity remaining
NIM1(h) = NIM1(h) (Homo sapiens (Human), UniProt Q8IY84); assay: KinaseProfiler panel; set-up: dose or concentration left out as unconfirmed; details: activity remaining
MST1(h) = MST1(h) (Homo sapiens (Human), UniProt Q13043); assay: KinaseProfiler panel; set-up: dose or concentration left out as unconfirmed; details: activity remaining
CaMKK1(h) = CaMKK1(h) (Homo sapiens (Human), UniProt Q8N5S9); assay: KinaseProfiler panel; set-up: dose or concentration left out as unconfirmed; details: activity remaining
DYRK3(h) = DYRK3(h) (Homo sapiens (Human), UniProt O43781); assay: KinaseProfiler panel; set-up: dose or concentration left out as unconfirmed; details: activity remaining
MLCK(h) = MLCK(h) (Homo sapiens (Human), UniProt Q15746); assay: KinaseProfiler panel; set-up: dose or concentration left out as unconfirmed; details: activity remaining
PKCε(h) = PKCε(h) (Homo sapiens (Human), UniProt Q02156); assay: KinaseProfiler panel; set-up: dose or concentration left out as unconfirmed; details: activity remaining
MuSK(h) = MuSK(h) (Homo sapiens (Human), UniProt O15146); assay: KinaseProfiler panel; set-up: dose or concentration left out as unconfirmed; details: activity remaining
Blk(h) = Blk(h) (Homo sapiens (Human), UniProt P51451); assay: KinaseProfiler panel; set-up: dose or concentration left out as unconfirmed; details: activity remaining
Mer(h) = Mer(h) (Homo sapiens (Human), UniProt Q12866); assay: KinaseProfiler panel; set-up: dose or concentration left out as unconfirmed; details: activity remaining
AAK1 = AAK1 (Homo sapiens (Human), UniProt Q2M2I8); assay: KinaseProfiler radiometric assay (16-043KP); details: mean of at least two independent experiments
Description: In another aspect, disclosed is a method of inhibiting citron kinase in a sample, comprising contacting the sample with a compound described herein (e.g., a compound of formula (I) or a pharmaceutically acceptable salt thereof), or a pharmaceutical composition described herein (e.g., a pharmaceutical composition comprising a compound of formula (I) or a pharmaceutically acceptable salt thereof), in an amount effective to inhibit citron kinase. In some embodiments, the step of contacting the sample with the compound comprises administering the compound to a subject (e.g., a subject) suffering from cancer. Methods of determining kinase inhibition are well known in the art. For example, kinase activity of an enzyme and the inhibitory capacity of a test compound can be determined by measuring enzyme specific phosphorylation of a substrate. Commercial assays and kits can be employed. For example, kinase inhibition can be determined using a radiometric binding assay, such as using KinaseProfiler™ technology (Eurofins Discovery). This assay method directly detects product formation without the use of modified substrates or coupling enzymes. […]
The effect of various compounds on the inhibition of other kinases has also been determined. Table 2 reports measured IC50 values; value units are nanomolar inhibition.

PKCη(h) = PKCη(h) (Homo sapiens (Human), UniProt P24723); assay: KinaseProfiler panel; set-up: dose or concentration left out as unconfirmed; details: activity remaining
EphB1(h) = EphB1(h) (Homo sapiens (Human), UniProt P54762); assay: KinaseProfiler panel; set-up: dose or concentration left out as unconfirmed; details: activity remaining
mTOR(h) = mTOR(h) (Homo sapiens (Human), UniProt P42345); assay: KinaseProfiler panel; set-up: dose or concentration left out as unconfirmed; details: activity remaining
Met(h) = Met(h) (Homo sapiens (Human), UniProt P08581); assay: KinaseProfiler panel; set-up: dose or concentration left out as unconfirmed; details: activity remaining
PrKX(h) = PrKX(h) (Homo sapiens (Human), UniProt P51817); assay: KinaseProfiler panel; set-up: dose or concentration left out as unconfirmed; details: activity remaining
LKB1(h) = LKB1(h) (Homo sapiens (Human), UniProt Q15831); assay: KinaseProfiler panel; set-up: dose or concentration left out as unconfirmed; details: activity remaining
CK2(h) = CK2(h) (Homo sapiens (Human), UniProt P68400); assay: KinaseProfiler panel; set-up: dose or concentration left out as unconfirmed; details: activity remaining
LIMK2(h) = LIMK2(h) (Homo sapiens (Human), UniProt P53671); assay: KinaseProfiler panel; set-up: dose or concentration left out as unconfirmed; details: activity remaining
ICK(h) = ICK(h) (Homo sapiens (Human), UniProt Q9UPZ9); assay: KinaseProfiler panel; details: activity remaining
Rsk1(h) = Rsk1(h) (Homo sapiens (Human), UniProt Q15418); assay: KinaseProfiler panel; set-up: dose or concentration left out as unconfirmed; details: activity remaining
IKKβ(h) = IKKβ(h) (Homo sapiens (Human), UniProt O14920); assay: KinaseProfiler panel; set-up: dose or concentration left out as unconfirmed; details: activity remaining
CK1α(h) = CK1α(h) (Homo sapiens (Human), UniProt P48729); assay: KinaseProfiler panel; set-up: dose or concentration left out as unconfirmed; details: activity remaining

Chain of PKCη(h) (P24723 whole entry): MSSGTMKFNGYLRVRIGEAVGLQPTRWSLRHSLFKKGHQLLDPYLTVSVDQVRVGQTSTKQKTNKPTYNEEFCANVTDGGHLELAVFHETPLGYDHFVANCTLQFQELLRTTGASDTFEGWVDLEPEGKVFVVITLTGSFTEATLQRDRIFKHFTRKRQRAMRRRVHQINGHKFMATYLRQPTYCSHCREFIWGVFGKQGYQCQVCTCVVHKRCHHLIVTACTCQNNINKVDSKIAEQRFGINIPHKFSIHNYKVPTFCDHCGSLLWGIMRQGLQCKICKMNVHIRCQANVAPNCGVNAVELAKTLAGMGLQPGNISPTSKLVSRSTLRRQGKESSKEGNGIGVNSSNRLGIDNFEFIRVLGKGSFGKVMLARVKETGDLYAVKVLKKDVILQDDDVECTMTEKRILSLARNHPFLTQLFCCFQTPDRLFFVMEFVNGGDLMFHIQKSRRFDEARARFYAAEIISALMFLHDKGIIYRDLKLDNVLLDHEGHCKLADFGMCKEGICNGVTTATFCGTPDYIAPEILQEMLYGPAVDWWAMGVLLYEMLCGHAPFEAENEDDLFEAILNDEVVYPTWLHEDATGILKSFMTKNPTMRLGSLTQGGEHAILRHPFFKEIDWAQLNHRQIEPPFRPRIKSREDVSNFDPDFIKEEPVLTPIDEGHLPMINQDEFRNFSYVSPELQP
Chain of MST1(h) (Q13043 whole entry): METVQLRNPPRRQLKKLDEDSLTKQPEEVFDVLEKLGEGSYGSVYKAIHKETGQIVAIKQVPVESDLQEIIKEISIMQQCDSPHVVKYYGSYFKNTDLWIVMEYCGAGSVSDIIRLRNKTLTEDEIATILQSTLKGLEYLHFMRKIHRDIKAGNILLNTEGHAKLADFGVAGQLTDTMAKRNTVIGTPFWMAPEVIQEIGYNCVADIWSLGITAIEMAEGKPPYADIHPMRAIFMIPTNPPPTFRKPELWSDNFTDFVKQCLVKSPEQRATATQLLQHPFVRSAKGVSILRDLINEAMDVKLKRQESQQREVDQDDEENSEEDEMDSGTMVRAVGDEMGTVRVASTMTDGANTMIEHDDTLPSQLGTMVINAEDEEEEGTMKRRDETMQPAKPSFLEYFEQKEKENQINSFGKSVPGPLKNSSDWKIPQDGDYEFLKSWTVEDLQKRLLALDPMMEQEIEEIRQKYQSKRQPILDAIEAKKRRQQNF
Chain of ICK(h) (Q9UPZ9 whole entry): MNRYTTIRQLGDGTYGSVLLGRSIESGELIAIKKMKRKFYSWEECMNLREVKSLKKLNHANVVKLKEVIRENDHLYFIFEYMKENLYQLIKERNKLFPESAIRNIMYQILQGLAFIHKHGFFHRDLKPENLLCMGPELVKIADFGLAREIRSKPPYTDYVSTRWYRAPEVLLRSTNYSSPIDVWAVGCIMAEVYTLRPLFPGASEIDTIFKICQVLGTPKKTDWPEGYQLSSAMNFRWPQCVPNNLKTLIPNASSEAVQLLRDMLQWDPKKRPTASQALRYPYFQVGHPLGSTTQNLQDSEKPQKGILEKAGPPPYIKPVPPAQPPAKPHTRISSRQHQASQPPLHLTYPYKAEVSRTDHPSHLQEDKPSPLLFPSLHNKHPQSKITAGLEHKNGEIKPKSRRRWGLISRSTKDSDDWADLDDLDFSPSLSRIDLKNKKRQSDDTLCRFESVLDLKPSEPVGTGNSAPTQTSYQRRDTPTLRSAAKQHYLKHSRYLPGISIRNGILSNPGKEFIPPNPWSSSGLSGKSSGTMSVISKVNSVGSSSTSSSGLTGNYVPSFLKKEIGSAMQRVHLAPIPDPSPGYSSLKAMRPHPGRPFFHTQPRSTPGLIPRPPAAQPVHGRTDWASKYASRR
Chain of IKKβ(h) (O14920 whole entry): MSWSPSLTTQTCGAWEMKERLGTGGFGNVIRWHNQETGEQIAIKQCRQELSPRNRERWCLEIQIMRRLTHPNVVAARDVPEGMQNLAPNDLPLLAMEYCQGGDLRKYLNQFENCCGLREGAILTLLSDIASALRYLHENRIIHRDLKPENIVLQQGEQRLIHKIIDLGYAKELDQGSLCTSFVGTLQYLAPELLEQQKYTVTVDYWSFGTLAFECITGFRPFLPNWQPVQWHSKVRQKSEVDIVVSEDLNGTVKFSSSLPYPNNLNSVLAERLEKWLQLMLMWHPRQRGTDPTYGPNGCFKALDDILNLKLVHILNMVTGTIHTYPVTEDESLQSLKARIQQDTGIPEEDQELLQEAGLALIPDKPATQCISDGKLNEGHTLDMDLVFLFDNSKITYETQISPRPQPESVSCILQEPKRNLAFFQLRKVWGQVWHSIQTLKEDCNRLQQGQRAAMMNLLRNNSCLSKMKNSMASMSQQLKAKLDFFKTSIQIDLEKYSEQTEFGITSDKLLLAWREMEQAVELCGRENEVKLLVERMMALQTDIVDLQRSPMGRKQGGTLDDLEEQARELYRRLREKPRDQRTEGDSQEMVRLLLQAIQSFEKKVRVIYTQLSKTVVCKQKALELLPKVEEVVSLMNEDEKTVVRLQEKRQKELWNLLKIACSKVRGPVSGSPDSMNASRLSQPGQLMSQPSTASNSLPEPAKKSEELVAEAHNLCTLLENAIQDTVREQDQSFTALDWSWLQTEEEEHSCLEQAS
Chain of Rsk1(h) (Q15418 whole entry): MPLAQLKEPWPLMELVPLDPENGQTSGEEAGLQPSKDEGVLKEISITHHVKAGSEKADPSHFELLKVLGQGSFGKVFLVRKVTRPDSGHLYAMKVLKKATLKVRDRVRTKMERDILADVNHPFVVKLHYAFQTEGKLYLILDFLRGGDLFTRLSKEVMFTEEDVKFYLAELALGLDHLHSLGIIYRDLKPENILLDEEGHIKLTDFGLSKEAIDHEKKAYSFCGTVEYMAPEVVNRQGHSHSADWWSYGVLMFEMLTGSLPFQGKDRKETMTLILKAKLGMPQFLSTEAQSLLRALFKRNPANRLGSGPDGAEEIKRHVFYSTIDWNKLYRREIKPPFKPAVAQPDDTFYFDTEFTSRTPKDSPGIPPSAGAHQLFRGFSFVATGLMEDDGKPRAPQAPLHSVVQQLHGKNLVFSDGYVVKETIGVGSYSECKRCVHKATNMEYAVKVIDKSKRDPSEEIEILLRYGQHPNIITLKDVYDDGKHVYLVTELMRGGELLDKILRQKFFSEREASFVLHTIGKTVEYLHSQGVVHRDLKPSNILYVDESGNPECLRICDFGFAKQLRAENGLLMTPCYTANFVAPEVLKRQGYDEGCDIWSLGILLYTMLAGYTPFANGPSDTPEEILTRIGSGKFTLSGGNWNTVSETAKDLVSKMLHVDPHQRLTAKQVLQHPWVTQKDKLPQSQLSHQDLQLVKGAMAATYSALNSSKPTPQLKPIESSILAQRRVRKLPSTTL
Chain of MuSK(h) (O15146 24-869): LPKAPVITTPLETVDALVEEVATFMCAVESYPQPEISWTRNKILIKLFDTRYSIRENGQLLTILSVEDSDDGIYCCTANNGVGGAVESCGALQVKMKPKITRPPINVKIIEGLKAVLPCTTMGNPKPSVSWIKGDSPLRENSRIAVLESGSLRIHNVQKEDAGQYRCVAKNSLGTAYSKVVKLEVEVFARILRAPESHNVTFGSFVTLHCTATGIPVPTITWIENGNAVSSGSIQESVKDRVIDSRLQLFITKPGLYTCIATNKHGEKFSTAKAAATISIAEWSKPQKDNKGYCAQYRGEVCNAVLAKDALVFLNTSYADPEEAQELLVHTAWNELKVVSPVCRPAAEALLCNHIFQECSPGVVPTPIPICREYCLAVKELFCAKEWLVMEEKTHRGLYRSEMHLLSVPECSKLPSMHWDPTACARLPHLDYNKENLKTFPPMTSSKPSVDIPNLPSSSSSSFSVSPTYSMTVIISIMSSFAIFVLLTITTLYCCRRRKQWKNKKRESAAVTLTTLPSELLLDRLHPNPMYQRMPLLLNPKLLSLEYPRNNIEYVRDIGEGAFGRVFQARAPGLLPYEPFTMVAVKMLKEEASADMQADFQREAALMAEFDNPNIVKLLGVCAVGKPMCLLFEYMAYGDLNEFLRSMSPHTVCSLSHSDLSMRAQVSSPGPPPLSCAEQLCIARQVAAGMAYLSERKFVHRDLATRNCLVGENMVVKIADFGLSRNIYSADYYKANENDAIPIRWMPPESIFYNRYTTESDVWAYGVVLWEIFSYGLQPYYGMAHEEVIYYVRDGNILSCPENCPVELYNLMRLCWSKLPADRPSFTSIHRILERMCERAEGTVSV
Chain of MEK2(h) (P36507 whole entry): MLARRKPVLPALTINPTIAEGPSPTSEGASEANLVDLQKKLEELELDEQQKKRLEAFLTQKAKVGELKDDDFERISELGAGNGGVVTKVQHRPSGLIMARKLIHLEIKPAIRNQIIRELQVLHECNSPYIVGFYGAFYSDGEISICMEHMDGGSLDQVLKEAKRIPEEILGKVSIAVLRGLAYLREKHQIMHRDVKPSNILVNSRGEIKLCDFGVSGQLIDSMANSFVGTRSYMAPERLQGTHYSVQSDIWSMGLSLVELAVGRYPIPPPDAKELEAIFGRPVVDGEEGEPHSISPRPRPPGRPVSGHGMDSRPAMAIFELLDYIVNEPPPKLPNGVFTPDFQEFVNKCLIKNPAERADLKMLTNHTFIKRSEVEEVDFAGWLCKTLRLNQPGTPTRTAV
Chain of NIM1(h) (Q8IY84 whole entry): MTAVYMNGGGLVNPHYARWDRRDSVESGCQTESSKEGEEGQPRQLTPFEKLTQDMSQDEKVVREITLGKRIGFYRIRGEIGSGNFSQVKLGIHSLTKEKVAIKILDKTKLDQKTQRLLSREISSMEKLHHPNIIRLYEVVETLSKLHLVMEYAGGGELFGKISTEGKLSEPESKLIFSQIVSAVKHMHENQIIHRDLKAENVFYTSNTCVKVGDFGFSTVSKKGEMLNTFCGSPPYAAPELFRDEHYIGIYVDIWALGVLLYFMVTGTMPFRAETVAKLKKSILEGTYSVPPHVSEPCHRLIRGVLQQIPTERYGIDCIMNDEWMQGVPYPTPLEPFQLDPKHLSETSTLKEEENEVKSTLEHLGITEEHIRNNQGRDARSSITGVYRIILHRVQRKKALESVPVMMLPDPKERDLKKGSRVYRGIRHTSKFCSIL

What does the source list for `Cc1cc2c(-c3ccc(NC(=O)[C@H](N)CC(C)(C)C)cc3C)ccnc2[nH]1` [Compound F-90, (2R)-2-Amino-4,4-dimethyl-N-[3-methyl-4-(2-methyl-1H-pyrrolo[2,3-b]pyridin-4-yl)phenyl]pentanamide]?
% Activity (MEK2(h)): 92%; % Activity (ULK3(h)): 95%; % Activity (NIM1(h)): 112%; % Activity (MST1(h)): 76%; % Activity (CaMKK1(h)): 89%; % Activity (DYRK3(h)): 99%; % Activity (MLCK(h)): 98%; % Activity (PKCε(h)): 97%; % Activity (MuSK(h)): 96%; % Activity (Blk(h)): 88%; % Activity (Mer(h)): 105%; IC50 (AAK1): 212 nM; % Activity (PKCη(h)): 118%; % Activity (EphB1(h)): 83%; % Activity (mTOR(h)): 95%; % Activity (Met(h)): 90%; % Activity (PrKX(h)): 101%; % Activity (LKB1(h)): 99%; % Activity (CK2(h)): 112%; % Activity (LIMK2(h)): 72%; % Activity (ICK(h)): 99%; % Activity (Rsk1(h)): 99%; % Activity (IKKβ(h)): 99%; % Activity (CK1α(h)): 97%
